Consider 9 compounds from patent publication US10981932B2, “Macrocyclic indole derivatives” (Bayer Aktiengesellschaft, priority 2016, dated 2021).

“And” between values parts separate entries of the source, which are not always exact repeats. Equal values may be shown once. Where a name gives a salt, the structure may show the parent alone. Read-outs that look alike come from different tables or passages of the source. Where only a bound is given, the exact number is not on record here.

One data set concerns OPM2. As to the kind of experiment: Anti-proliferative effect (CellTiter-Glo, 72 h), OPM2. It is filed as cell-based. The settings on record: OPM2 cells, median, read-out: IC50 antiproliferation assay OPM2 [M] (median). Put shortly:
(§1)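 CTG luminescence read-out after 72 h compound exposure, 37 °C, humidified. Time-zero reference plate read at plating.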
(In general: ATP-based viability assays read luminescence as a measure of living cells.)

Data set [1] deals with SUDHL10. Put plainly: Induction of caspase-3/7 activity (Caspase-Glo 3/7), SUDHL10. It is filed as cell-based. The settings on record: caspase-3/7 induction, SUDHL10 cells, 3 h treatment, median. Put shortly: (§2)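 Caspase-Glo 3/7 luminescence, 3 h compound exposure, 37 °C, humidified. Minus medium-only blank. EC50 fit: C0=1, plateau = reference max induction.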
For data set [2], the system named is SUDHL10. Put plainly: Induction of cytotoxicity (CellTiter-Glo, 5 h), SUDHL10.
In data set [3] the test system is SUDHL5. Put plainly: Induction of cytotoxicity (CellTiter-Glo, 5 h), SUDHL5.
Data set [4] deals with SUDHL5. As to the kind of experiment: Induction of caspase-3/7 activity (Caspase-Glo 3/7), SUDHL5. It is filed as cell-based. Conditions: caspase-3/7 induction, SUDHL5 cells, 3 h treatment, median. Put shortly: as §2
Data set [5] deals with SUDHL5. As to the kind of experiment: Anti-proliferative effect (CellTiter-Glo, 72 h), SUDHL5. It is filed as cell-based. Conditions: SUDHL5 cells, antiproliferation, 72 h incubation, median, read-out: Antiproli SUDHL5 [M] (median). Put shortly:
as §1

Data set [6] has as its system SUDHL10. As to the kind of experiment: Anti-proliferative effect (CellTiter-Glo, 72 h), SUDHL10. It is filed as cell-based. The settings on record: SUDHL10 cells, antiproliferation, 72 h incubation, median, read-out: Antiproli SUDHL10 [M] (median). Put shortly: as §1
In the next data set the test system is A2780. As to the kind of experiment: Anti-proliferative effect (CellTiter-Glo, 72 h), A2780. Format: cell-based. The settings on record: A2780 cells, median, read-out: IC50 antiproliferation assay A2780 [M] (median). Put shortly:
as §1

The target in a further data set is MCL-1 (Homo sapiens, UniProt Q07820). As to the kind of experiment: Protein-protein interaction assay MCL-1/Noxa BH3 peptide (MCL-1 assay), TR-FRET. Format: binding. Conditions: MBP-MCL-1 / Noxa BH3-derived peptide, median. Put shortly: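 Displacement of the biotinylated Noxa BH3 peptide from MBP-tagged human MCL-1 (1 nM) is detected by time-resolved FRET. Compounds are tested in duplicate across eleven concentrations up to 20 μM, incubated 1 h at 22 °C and overnight at 4 °C, and IC50 is fitted with a four-parameter equation.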

The mark [7] stands for this setting: Homo sapiens, SU-DHL10, 5 h, read-out: Cytotox SUDHL10 [M] (median), SUDHL10 cells, cytotoxicity induction, CellTiter-Glo, 5 h incubation, median.
Setting [8] is: read-out: Cytotox SUDHL10 [M] (median), SUDHL10 cells, cytotoxicity induction, CellTiter-Glo, 5 h incubation, median.
Setting [9] is: read-out: Cytotox SUDHL5 [M] (median), SUDHL5 cells, cytotoxicity induction, CellTiter-Glo, 5 h incubation, median.

Sequence of MCL-1 (Q07820 whole entry): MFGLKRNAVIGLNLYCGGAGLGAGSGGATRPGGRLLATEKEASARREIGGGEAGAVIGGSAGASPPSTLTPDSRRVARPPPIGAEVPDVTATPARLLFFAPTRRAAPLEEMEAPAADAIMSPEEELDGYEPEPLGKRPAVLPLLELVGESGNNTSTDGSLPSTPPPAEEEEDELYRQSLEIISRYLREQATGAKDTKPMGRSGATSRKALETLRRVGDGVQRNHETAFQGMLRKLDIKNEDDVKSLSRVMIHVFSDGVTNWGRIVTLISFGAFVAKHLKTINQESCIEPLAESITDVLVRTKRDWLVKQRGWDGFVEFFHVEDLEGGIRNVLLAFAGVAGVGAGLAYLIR

Regarding `COCc1nn(C)c2c1-c1cccc3c(CCCOc4cccc5ccccc45)c(C(=O)O)n(c13)CCCCOC2` (single isomer, unassigned; enantiomer 1) [Example 159, 3-(methoxymethyl)-1-methyl-7-[3-(naphthalen-1-yloxy)propyl]-1,10,11,12,13,15-hexahydropyrazolo[4′,3′:9,01][1,6]oxazacycloundecino[8,7,6-hi]indole-8-carboxylic acid-N-ethylethanamine Salt (Enantiomer 1)], the IC50 in the data set on OPM2 (Homo sapiens, OPM-2, 72 h) is more than 3.3e-05 M; in the data set with SUDHL10 [2] (setting [7]), 3.05e-05 M; in the data set with SUDHL10 [2] (setting [8]) it was more than 3.3e-05 M; in the data set on SUDHL5 [3] (Homo sapiens, SU-DHL-5, 5 h, read-out: Cytotox SUDHL5 [M] (median), SUDHL5 cells, cytotoxicity induction, CellTiter-Glo, 5 h incubation, median), 1.76e-05 M; in the data set with SUDHL5 [5], 1.75e-05 M; in the data set with SUDHL10 [6] it was 2.98e-05 M and > 3.3e-05 M. The IC50 with A2780 (Homo sapiens, A2780, 72 h) is more than 3.3e-05 M; against MCL-1, 23.8 nM. Besides, the concentration giving a half-maximal response (EC50) – broadly, the midpoint of the concentration-response curve – in the data set on SUDHL10 [1] (Homo sapiens, SU-DHL10, 3 h) was 28.6 µM; in the data set with SUDHL10 [1] it was more than 33 µM; with SUDHL5 [4] (Homo sapiens, SU-DHL-5, 3 h), 13.8 µM.

In the case of `CCOCc1nn(C)c2c1-c1cccc3c(CCCOc4cccc5ccccc45)c(C(=O)O)n(c13)CCCCOC2` (single isomer, unassigned; enantiomer 1) [Example 169, 3-(ethoxymethyl)-1-methyl-7-[3-(naphthalen-1-yloxy)propyl]-1,10,11,12,13,15-hexahydropyrazolo[4′3′:9,10][1,6]oxazacycloundecino[8,7,6-hi]indole-8-carboxylic Acid (Enantiomer 1)], the IC50 in the data set on OPM2 (Homo sapiens, OPM-2, 72 h) is 2.04e-05 M; in the data set on SUDHL10 [2] (setting [7]) it was 2.01e-05 M; in the data set on SUDHL10 [2] (setting [8]), more than 3.3e-05 M; with SUDHL5 [3] (setting [9]), 1.74e-05 M and > 3.3e-05 M; in the data set on SUDHL5 [5], 2.68e-05 M; in the data set with SUDHL10 [6], 2.02e-05 M. The IC50 in the data set with A2780 (Homo sapiens, A2780, 72 h) stood at 2.02e-05 M; against MCL-1 it was 18.4 nM. Also, the concentration giving a half-maximal response (EC50) with SUDHL10 [1] and in the data set with SUDHL5 [4] was more than 33 µM each time.

Consider `CCOCc1nn(C)c2c1-c1cccc3c(CCCOc4cccc5c4CCCC5)c(C(=O)O)n(c13)CCCCOC2` (single isomer, unassigned; enantiomer 1) [Example 171, 3-(ethoxymethyl)-1-methyl-7-[3-(5,6,7,8-tetrahydronaphthalen-1-yloxy)propyl]-1,10,11,12,13,15-hexahydropyrazolo[4′,3′:9,10][1,6]oxazacycloundecino[8,7,6-hi]indole-8-carboxylic Acid (Enantiomer 1)], for which the IC50 in the data set with OPM2 was 1.23e-05 M; in the data set with SUDHL10 [2] (setting [8]) it was 1.39e-05 M; in the data set on SUDHL5 [3] (setting [9]), 5.08e-06 M; with SUDHL5 [5] (Homo sapiens, SU-DHL-5, 72 h) it was 2.24e-06 M; with SUDHL10 [6], 6.45e-06 M; in the data set on A2780 (Homo sapiens, A2780, 72 h), more than 3.3e-05 M. This compound displayed an IC50 on MCL-1 of 2.68 nM. In addition, the values for the concentration for a half-maximal effect (EC50) with SUDHL10 [1] and in the data set on SUDHL5 [4] were 13.4 µM and 6.48 µM, respectively.

For the compound `CN(C)S(=O)(=O)N1CCN(c2ccc(OCc3nn(C)c4c3-c3cccc5c(CCCOc6cccc7ccccc67)c(C(=O)O)n(c35)CCCCOC4)cc2)CC1` (single isomer, unassigned; enantiomer 2) [Example 1-20, 3-({4-[4-(dimethylsulfamoyl)piperazin-1-yl]phenoxy}methyl)-1-methyl-7-[3-(naphthalen-1-yloxy)propyl]-1,10,11,12,13,15-hexahydropyrazolo[4′,3′:9,10][1,6]oxazacycloundecino[8,7,6-hi]indole-8-carboxylic Acid (Enantiomer 2)], the IC50 came out at 2.32e-06 M in the data set on OPM2 (Homo sapiens, OPM-2, 72 h); 3.06e-06 M in the data set with SUDHL10 [2] (setting [8]); 2.11e-06 M with SUDHL5 [3] (setting [9]); 1.25e-06 M with SUDHL5 [5]; 2.19e-06 M in the data set with SUDHL10 [6] (Homo sapiens, SU-DHL10, 72 h); 1.38e-05 M in the data set on A2780 (Homo sapiens, A2780, 72 h). The IC50 on MCL-1 was found to be 2.85 nM. Besides, the EC50 in the data set on SUDHL10 [1] stood at 1.95 µM; in the data set with SUDHL5 [4], 1.63 µM.

Take `Cn1nc(COc2ccc(N3CCN(C(=O)C4CC4)CC3)cc2)c2c1COCCCCn1c(C(=O)O)c(CCCOc3cccc4ccccc34)c3cccc-2c31` (single isomer, unassigned; enantiomer 2) [Example 1-23, 3-({4-[4-(cyclopropylcarbonyl)piperazin-1-yl)phenoxy]methyl}-1-methyl-7-[3-(naphthalen-1-yloxy)propyl]-1,10,11,12,13,15-hexahydropyrazolo[4′,3′:9,10][1,6]oxazacycloundecino[8,7,6-hi]indole-8-carboxylic acid (enantiomer 2)]: the IC50 is 1.7e-05 M in the data set on OPM2; more than 3.3e-05 M with SUDHL10 [2] (setting [8]); 2.45e-05 M in the data set with SUDHL5 [3] (setting [9]); 1.15e-05 M with SUDHL5 [5]; 5.59e-06 M in the data set on SUDHL10 [6]; 1.43e-05 M with A2780. The IC50 on MCL-1 is 32.3 nM. Further, the half-maximal effective concentration (EC50) is 23 µM with SUDHL10 [1] and 21.3 µM in the data set on SUDHL5 [4].

On to `Cc1nn(C)c2c1-c1cccc3c(CCCOc4cccc5ccccc45)c(C(=O)O)n(c13)CCCN(C)C2` (single isomer, unassigned; enantiomer 2) [Example 1-32, 7,9,11-trimethyl-1-[3-(naphthalen-1-yloxy)propyl]-4,5,6,7,8,9-hexahydropyrazolo[3′,4′:7,8][1,5]diazecino[9,10,1-hi]indole-2-carboxylic Acid-N-ethylethanamine Salt (Enantiomer 2)], for which the IC50 with OPM2 is 2.76e-05 M; in the data set with SUDHL10 [2] (setting [8]) it was 3.23e-05 M; in the data set with SUDHL5 [3] (setting [9]) it was more than 3.3e-05 M; in the data set with SUDHL5 [5], 1.63e-05 M; with SUDHL10 [6], 1.18e-05 M; with A2780, 1.82e-05 M. Besides, the IC50 at MCL-1 turned out to be 49.2 nM. The EC50 is 22.9 µM and 20.4 µM and > 33 µM with SUDHL10 [1]; more than 33 µM with SUDHL5 [4].

Take `Cc1c2c(nn1C)COCCCCn1c(C(=O)O)c(CCCOc3cccc4ccccc34)c3cccc-2c31` (single isomer, unassigned; enantiomer 2) [Example 1-38, (−)-2,3-dimethyl-7-[3-(naphthalen-1-yloxy)propyl]-2,10,11,12,13,15-hexahydropyrazolo[4′,3′:9,10][1,6]oxazacycloundecino[8,7,6-hi]indole-8-carboxylic Acid (Enantiomer 2)]: the IC50 in the data set on OPM2 was 3.22e-05 M; with SUDHL10 [2] (setting [8]), more than 3.3e-05 M; in the data set on SUDHL5 [3] (setting [9]), more than 3.3e-05 M; with SUDHL5 [5], 2.3e-05 M; in the data set on SUDHL10 [6] it was 1.49e-05 M; in the data set on A2780, more than 3.3e-05 M. On MCL-1, this compound displayed an IC50 of 75.1 nM. Also, the EC50 in the data set with SUDHL10 [1] and with SUDHL5 [4] was more than 33 µM each time.

As for `Cc1nn(C)c2c1-c1cccc3c(CCCOc4cccc5ccccc45)c(C(=O)O)n(c13)CCCN(c1ccc(N3CCOCC3)cc1)C2` (single isomer, unassigned; enantiomer 2) [Example 1-100, 9,11-Dimethyl-7-[4-(morpholin-4-yl)phenyl]-1-[3-(1-naphthyloxy)propyl]-4,5,6,7,8,9-hexahydropyrazolo[3′,4′:7,8][1,5]diazecino[9,10,1-hi]indole-2-carboxylic Acid (Enantiomer 2)], the IC50 in the data set on OPM2 was 1.94e-05 M; in the data set with SUDHL10 [2] (setting [8]), > 3.3e-05 M and 3.29e-05 M; in the data set on SUDHL5 [3] (setting [9]), more than 3.3e-05 M; in the data set with SUDHL5 [5] it was 9.42e-06 M; in the data set with SUDHL10 [6] it was 6.21e-06 M; in the data set on A2780, 1.38e-05 M. At MCL-1, this compound gave an IC50 of 35.9 nM. Besides, the 50% effective concentration (EC50) was > 33 µM and 30.6 µM with SUDHL10 [1]; 28.4 µM with SUDHL5 [4].

In the case of `CCS(=O)(=O)N1CCN(c2ccc(N3CCCn4c(C(=O)O)c(CCCOc5cccc6ccccc56)c5cccc(c54)-c4c(C)nn(C)c4C3)cc2)CC1` (single isomer, unassigned; enantiomer 2) [Example 1-110, 7-{4-[4-(Ethylsulfonyl)piperazin-1-yl]phenyl}-9,11-dimethyl-1-[3-(1-naphthyloxy)propyl]-4,5,6,7,8,9-hexahydropyrazolo[3′,4′:7,8][1,5]diazecino[9,10,1-hi]indole-2-carboxylic Acid (Enantiomer 2)], the IC50 with OPM2 worked out at 8.62e-06 M; with SUDHL10 [2] (setting [8]), 1.69e-05 M; in the data set on SUDHL5 [3] (setting [9]) it was 1.53e-05 M; with SUDHL5 [5] it was 4.04e-06 M; in the data set with SUDHL10 [6] it was 2.58e-06 M; in the data set on A2780, 7.54e-06 M. Besides, the IC50 at MCL-1 worked out at 58.1 nM. Moreover, the 50% effective concentration (EC50) in the data set on SUDHL10 [1] and in the data set on SUDHL5 [4] was 15.3 µM in each case.
